Test results published in patent publication US20190376971A1, “Compositions and Methods for the Assessment of Drug Target Occupancy for Bruton's Tyrosine Kinase” (Acerta Pharma B.V., priority 2017, published 2019).
pIC50: −log10 of the molar value.

Tests used:
BTK [1] = biological target: T1, BTK (Homo sapiens, UniProt Q06187); test: Binding of biotin probes to recombinant BTK, Western blot with Streptavadin-HRP; details: PBS, lysis buffer 1 or lysis buffer 2
Description: For the biotin probes (such as Formula (3) and Formula (4)), samples are run using SDS-PAGE gel, followed by transferring the protein to a polyvinylidene fluoride (PVDF) membrane by Western blotting. Subsequently, the blot is blocked overnight at 4° C. in TBS-T (10 mM TRIS pH 7.4, 100 mM NaCl, 0.1% Tween 20)+2.5% (w/v) skimmed milk powder). The blot is washed 4× with TBS-T and then incubated with Streptavadin-HRP for 1 hour at room temperature. The blot is washed again 4× with TBS-T before adding the chemiluminescent substrate, followed by measurement of the chemiluminescence signal.
SDS-PAGE procedures are known to those of ordinary skill in the art. A non-limiting example of a SDS-PAGE procedure is as follows: • 1. Add 1.1 μL of probe to 10 μL of each sample (recombinant BTK or cell lysate); final probe concentration 0.1 μM. • 2. Incubate 2 hour at room temperature. • 3. Add 4 μL sample buffer/DTT (200 μM) and incubate for 5 minutes at 95° C. • 4. Vortex and keep on ice until loading on gel. • 5. […] For the samples on gel with the fluorescent probe, the gels are measured directly using an imager suitable for measuring the fluorescent label on the probes (e.g., E tan Imager; GE Healthcare (Cy2: 480/30 excitation, 530/40 emission, Cy3: 544 excitation, 570 emission). • 9. For the biotin labeled probes, the gel is blotted to a PVDF membrane, using the Western blot procedure below. […]
Target sequence in this assay (Q06187 whole entry, species assumed): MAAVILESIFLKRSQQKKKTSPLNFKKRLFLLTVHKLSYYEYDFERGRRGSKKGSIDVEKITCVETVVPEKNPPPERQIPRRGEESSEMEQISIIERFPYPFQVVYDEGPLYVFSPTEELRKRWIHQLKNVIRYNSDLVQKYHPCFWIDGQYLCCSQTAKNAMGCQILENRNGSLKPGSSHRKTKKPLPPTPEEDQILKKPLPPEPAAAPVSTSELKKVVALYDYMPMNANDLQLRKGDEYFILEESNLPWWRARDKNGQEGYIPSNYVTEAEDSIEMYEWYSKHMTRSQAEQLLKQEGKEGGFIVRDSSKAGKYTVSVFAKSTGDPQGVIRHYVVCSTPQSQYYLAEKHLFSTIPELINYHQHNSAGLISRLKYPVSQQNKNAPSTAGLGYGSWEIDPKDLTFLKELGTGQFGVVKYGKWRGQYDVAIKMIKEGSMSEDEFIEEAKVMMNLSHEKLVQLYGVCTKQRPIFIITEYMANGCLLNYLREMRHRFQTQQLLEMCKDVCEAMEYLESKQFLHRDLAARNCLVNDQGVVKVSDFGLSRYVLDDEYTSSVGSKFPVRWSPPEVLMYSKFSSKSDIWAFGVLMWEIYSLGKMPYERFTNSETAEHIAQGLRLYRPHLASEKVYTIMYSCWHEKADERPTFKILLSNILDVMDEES

BTK [2] = biological target: T1, BTK; test: BTK IMAP (immobilized metal ion affinity-based fluorescence polarization) assay; assay type: biochemical; design: endogenous in cells; host or cells: Ramos B cells (Ramos.2G6.4C10); details: 5 μM ATP, 60 min pre-incubation, read-out: IC50 for BTK inhibition
Description: In summary, BTK enzyme activity is measured using the IMAP (immobilized metal ion affinity-based fluorescence polarization) assay as outlined below. […] After 60 minutes of incubation at room temperature in the dark, the FP signal is read. Fluorescence at 535 nm is measured using parallel and perpendicular filters to determine differences in rotation due to binding of the phosphorylated substrate peptide to the beads. Values are calculated as a percentage of the difference in readout (ΔmPi) of the controls with and without ATP.
Inhibition of the activity of the protein kinase BTK can be measured with the assay described in this protocol. […] The method is based on IMAP, which is a homogeneous fluorescence polarization (FP) assay based on affinity capture of phosphorylated peptide substrates. […]
Target sequence in this assay (Q06187 whole entry): as the sequence (Q06187 whole entry, species assumed) above

BTK [3] = biological target: T1, BTK; test: Binding of BODIPY/fluorescent probes to recombinant BTK, SDS-PAGE in-gel fluorescence; details: probe 0.1 μM, 2 hours
Description: To test different BTK target occupancy probes and lysis buffers, probes were incubated with recombinant BTK protein for 2 hours and subsequently run using sodium dodecyl sulfate polyacrylamide gel electrophoresis (SDS PAGE). When using the boron-dipyrromethene (BODIPY) tagged probes (such as Formula (5) and Formula (6)), the gel is measured directly using a fluorescence imager. BTK probe (final concentration 0.1 μM) is incubated with 125 ng BTK for 2 hours at room temperature. Afterwards, sample buffer is added and run on a SDS-PAGE gel. Fluorescent probes such as Formula (5) and Formula (6) are quantified in gel using the E tan Imager from GE Healthcare, suitable for the emission and detection of fluorescent signal for BODIPY tags.
SDS-PAGE procedures are known to those of ordinary skill in the art. A non-limiting example of a SDS-PAGE procedure is as follows: • 1. Add 1.1 μL of probe to 10 μL of each sample (recombinant BTK or cell lysate); final probe concentration 0.1 μM. • 2. Incubate 2 hour at room temperature. • 3. Add 4 μL sample buffer/DTT (200 μM) and incubate for 5 minutes at 95° C. • 4. Vortex and keep on ice until loading on gel. • 5. Spin down shortly and load 15 μL on a 12 slot Novex gradient gel (4-12% Bis-Tris gel). • 6. Run in NuPage MOPS SDS running buffer. • 7. After running the samples on gel, remove the gel from the surelock holder. • 8. For the samples on gel with the fluorescent probe, the gels are measured directly using an imager suitable for measuring the fluorescent label on the probes (e.g., E tan Imager; GE Healthcare (Cy2: 480/30 excitation, 530/40 emission, Cy3: 544 excitation, 570 emission). • 9. For the biotin labeled probes, the gel is blotted to a PVDF membrane, using the Western blot procedure below.
Target sequence in this assay (Q06187 whole entry, species assumed): as above

[4] = lysis buffer 2 (1% Triton X100)

Structure (SMILES) | signal of biotin probe bound to BTK (Streptavadin-HRP chemiluminescence) (BTK [1]) | pIC50 (BTK [2]) | binding to recombinant BTK (fluorescence signal in gel) (BTK [3]; PBS or lysis buffer 1) | binding to recombinant BTK (fluorescence signal in gel) (BTK [3]; [4])
Nc1nccn2c([C@@H]3CCCCN3C(=O)/C=C/CN3CCN(CCNC(=O)CCCC(=O)NCCCOCCOCCOCCCNC(=O)CCCC[C@@H]4SC[C@@H]5NC(=O)N[C@@H]54)CC3)nc(-c3ccc(C(=O)Nc4ccccn4)cc3)c12 [Formula (3), N-[3-[2-[2-[3-[5-[(3aS,4S,6aR)-2-oxo-1,3,3a,4,6,6a-hexahydrothieno[3,4-d]imidazol-4-yl]pentanoylamino]propoxy]ethoxy]ethoxy]propyl]-N′-[2-[4-[(E)-4-[(2S)-2-[8-amino-1-[4-(2-pyridylcarbamoyl)phenyl]imidazo[1,5-a]pyrazin-3-yl]-1-piperidyl]-4-oxo-but-2-enyl]piperazin-1-yl]ethyl]pentanediamide] | stronger signal | 8.47 | – | –
COc1ccc(-c2ccc3n2[B-](F)(F)[N+]2=C(C)C(CCC(=O)NCCN4CCN(C/C=C/C(=O)N5CCC[C@H]5c5nc(-c6ccc(C(=O)Nc7ccccn7)cc6)c6c(N)nccn56)CC4)=C(C)C2=C3)cc1 [Formula (4)] | – | 8.82 | – | –
Cc1cc(C)n2c1C=C1C=CC(CCC(=O)NCCN3CCN(C/C=C/C(=O)N4CCC[C@H]4c4nc(-c5ccc(C(=O)Nc6ccccn6)cc5)c5c(N)nccn45)CC3)=[N+]1[B-]2(F)F [Formula (5)] | – | – | clear binding | minimal
Nc1nccn2c([C@@H]3CCCN3C(=O)/C=C/CN3CCN(CCNC(=O)CCCC(=O)NCCCOCCOCCOCCCNC(=O)CCCC[C@@H]4SC[C@@H]5NC(=O)N[C@@H]54)CC3)nc(-c3ccc(C(=O)Nc4nccs4)cc3)c12 [Formula (6)] | – | – | clear binding | no detectable binding
